Counter-ions that a name gives are not always drawn. Like-named read-outs stand apart in the source and are kept apart here.
What was measured:
Cryptosporidium parvum = test: qRT-PCR assay of the growth of C. parvum in vitro in HCT-8 host cells (primary and secondary screening, EC50); type: cell-based; conditions: for inhibition at 10 µM / Inhibition (%): primary screening at 10 uM; for inhibition at 10 µM: read-out: Inhibition (%)
[1] = primary screening at 10 uM, treated vs control
[2] = primary screening at 10 uM, from Hs18S ΔCT

Row | Compound | inhibition at 10 µM (Cryptosporidium parvum; Cryptosporidium parvum, HCT-8) [%] | Hs18S ΔCT (HCT-8 host cells (Hs18S); human, 41 h, 10 μM) | cytotoxicity at 41 h, 10 µM (in vitro; human) [%] | Hs18S ΔCT (HCT-8 host cells (Hs18S); [1]) | cytotoxicity at 10 µM (in vitro) [%] | further results
1 | Nc1nc(=O)c2[nH]c(=O)cnc2[nH]1 [XANTHOPTERIN] | 22.7 | 0.47 | 27.9 | – | – | –
2 | COc1c(O)cc(O)cc1O [IRETOL] | -15 | -0.32 | -24.7 | – | – | –
3 | CCOc1cccc(C(=O)c2ccc(O)c(O)c2O)c1 | -37.2 | -0.39 | -31.4 | – | – | –
4 | COc1cc2c(cc1OC)C1(O)C(=O)c3ccc(O)c(C(=O)O)c3OC1CO2 (stereo not drawn) [12a-HYDROXY-9-DEMETHYLMUNDUSERONE-8-CARBOXYLIC ACID] | 0.54 | – | – | 0.06 | 4.1 | –
5 | COc1ccc2c(C)cc(=O)oc2c1 [HYMECROMONE METHYL ETHER] | -1.44 | 0.26 | 16.6 | – | – | –
6 | O=c1c(O)cc([C@H]2Oc3cc(O)cc(O)c3C[C@H]2O)cc2c([C@H]3Oc4cc(O)cc(O)c4C[C@H]3O)cc(O)c(O)c12 [THEAFLAVIN] | 10.2 | 0.11 | 7.6 | – | – | –
7 | Nc1ccccc1C(=O)CC(N)C(=O)O (stereo not drawn) [KYNURENINE] | -14.4 | – | – | 0.48 | 28.1 | –
8 | Cc1[nH]c2ccccc2c1CN(C)C [2-METHYL GRAMINE] | 0.92 | -0.11 | -7.5 | – | – | –
9 | CC[C@H]1CN2CCc3cc(OC)c(OC)cc3[C@@H]2C[C@@H]1C[C@H]1NCCc2cc(OC)c(OC)cc21 [EMETINE DIHYDROCHLORIDE] | 97.3 | – | – | 1.41 | – | inhibition at 3.3 µM (Cryptosporidium parvum; Cryptosporidium parvum, HCT-8, secondary screening at 3.3 uM, read-out: % Inhibition (3.3 uM)): 95%; cytotoxicity at 41 h, 10 µM (in vitro): 62.4%
10 | COc1ccc(CC(=O)c2ccc(O)cc2O)cc1 [ONONETIN] | 8.27 | -0.18 | -12.9 | – | – | –
11 | CC(C)[C@@H]1CC[C@@H](C)CC1=O [MENTHONE] | 28.9 | -0.20 | -14.5 | – | – | –
12 | CC1(C)[C@@H](O)CC[C@]2(C)[C@H]3C(=O)C=C4[C@H]5C[C@@](C)(C(=O)O)CC[C@]5(C)CC[C@@]4(C)[C@]3(C)CC[C@@H]12 | -12.7 | – | – | -0.01 | -0.5 | –
13 | CC(C)=CCOc1cc2oc(=O)ccc2cc1O [PRENYLETIN] | -6.72 | -0.59 | -50 | – | – | –
14 | COc1ccc(-c2cc(=O)c3c(O)c(OC)c(OC)c(OC)c3o2)cc1 [GARDENIN B] | 53.6 | 0.25 | 16 | – | – | –
15 | [H]/N=C(/N)N[C@H]1[C@H](O)[C@@H](O)[C@H](O[C@@H]2O[C@@H](C)[C@](O)(C=O)[C@H]2O[C@@H]2O[C@@H](CO)[C@H](O)[C@@H](O)[C@@H]2NC)[C@@H](N/C(N)=N\[H])[C@@H]1O [STREPTOMYCIN SULFATE] | 15.4 | -0.10 | -7.1 | – | – | –
16 | O=c1c(O)c(-c2ccc(O)cc2O)oc2cc(O)cc(O)c12 [MORIN] | 32.3 | – | – | -0.21 | -15.6 | –
17 | C[C@]12CC[C@H]3[C@@H](CC[C@]4(O)C[C@@H](O)CC[C@]34C=O)[C@@]1(O)CC[C@@H]2C1=CC(=O)OC1 [STROPHANTHIDIN] | – | – | 100 | 11.98 | – | –
18 | CC(C)=CCc1c2c(c3occ(-c4ccc(O)c(O)c4)c(=O)c3c1O)C=CC(C)(C)O2 [POMIFERIN] | – | 6.42 | 98.8 | – | – | –
19 | C[C@@]12C(=O)OC(=O)[C@]1(C)[C@H]1CC[C@@H]2O1 [CANTHARIDIN] | – | – | – | 7.39 | 99.4 | –
20 | CC1CCC23CCC4(C)C5(C)CCC6C(C)(C)C(=O)CCC6(C)C5CCC4(OC2=O)C3C1C (stereo not drawn) [3-OXOURSAN (28-13)OLIDE] | – | – | – | 6.62 | 99 | –
21 | COc1cc([C@@H]2c3cc4c(cc3[C@H](O)[C@H]3COC(=O)[C@H]23)OCO4)cc(OC)c1OC [PODOFILOX] | – | – | – | 5.42 | – | cytotoxicity at 41 h, 10 µM (in vitro): 97.7%
22 | CC1=C(O)C(=O)C=C2C1=CC=C1[C@@]2(C)CC[C@@]2(C)[C@@H]3C[C@](C)(C(=O)O)CC[C@]3(C)CC[C@]12C [CELASTROL] | – | – | – | 3.82 | 92.9 | –

Row | Compound | inhibition at 10 µM (Cryptosporidium parvum; Cryptosporidium parvum, HCT-8) [%] | Hs18S ΔCT (HCT-8 host cells (Hs18S); human, 41 h, 10 μM) | cytotoxicity at 41 h, 10 µM (in vitro; human) [%] | Hs18S ΔCT (HCT-8 host cells (Hs18S); [1]) | cytotoxicity at 10 µM (in vitro) [%] | further results
23 | C[C@H]1O[C@@H](O[C@H]2[C@@H](O)C[C@H](O[C@H]3[C@@H](O)C[C@H](O[C@H]4CC[C@@]5(C)[C@H](CC[C@@H]6[C@@H]5CC[C@]5(C)[C@@H](C7=CC(=O)OC7)CC[C@]65O)C4)O[C@@H]3C)O[C@@H]2C)C[C@H](O)[C@@H]1O [DIGITOXIN] | – | – | – | 13.47 | 100 | –
24 | C[C@@H]1O[C@@H](O[C@H]2CC[C@]3(C=O)[C@H]4CC[C@]5(C)[C@@H](C6=CC(=O)OC6)CC[C@]5(O)[C@@H]4CC[C@]3(O)C2)[C@H](O)[C@H](O)[C@H]1O [CONVALLATOXIN] | – | – | – | 10.84 | 99.9 | –
25 | NCCCC(=O)O [gamma-AMINOBUTYRIC ACID] | – | 0.04 | 2.6 | – | – | –
26 | Cc1cc(O)c2c(c1O)C(=O)c1c(O)cc(C)c(O)c1C2=O [1,4,5,8-TETRAHYDROXY-2,6-DIMETHYLANTHROQUINONE] | – | 3.65 | 92 | – | – | –
27 | CC(=O)O[C@@H]1C[C@@]2(C)[C@H](c3ccoc3)C[C@H]3O[C@]32[C@]2(C)C(=O)C(O)=C3C(C)(C)C(=O)C=C[C@]3(C)[C@@H]12 [ANTHOTHECOL] | – | 6.51 | 98.9 | – | – | –
28 | CC(=O)O[C@H]1CC[C@@]2(C)[C@H](CC[C@@H]3[C@@H]2CC[C@]2(C)[C@@H](C4=CC(=O)OC4)[C@@H](OC(C)=O)C[C@]32O)C1 [GITOXIGENIN DIACETATE] | – | – | – | 8.90 | 99.8 | –
29 | CO[C@H]1[C@H](O)[C@H](O[C@H]2CC[C@@]3(C=O)[C@H](CC[C@@H]4[C@@H]3CC[C@]3(C)[C@@H](C5=CC(=O)OC5)CC[C@]43O)C2)O[C@@H](C)[C@@H]1O [PERUVOSIDE] | – | – | – | 10.85 | 99.9 | –
30 | CC(=O)O[C@H]1C[C@H](O[C@H]2[C@@H](O)C[C@H](O[C@H]3[C@@H](O)C[C@H](O[C@H]4CC[C@@]5(C)[C@H](CC[C@@H]6[C@@H]5C[C@@H](O)[C@]5(C)[C@@H](C7=CC(=O)OC7)CC[C@]65O)C4)O[C@@H]3C)O[C@@H]2C)O[C@H](C)[C@H]1O[C@@H]1O[C@H](CO)[C@@H](O)[C@H](O)[C@H]1O [LANATOSIDE C] | – | – | – | 8.93 | 99.8 | –
31 | CC(C)=CCC[C@]1(C)C=Cc2c(O)c3c(c(CC=C(C)C)c2O1)O[C@]12C(=C[C@@H]4C[C@H]1C(C)(C)O[C@@]2(C/C=C(/C)C(=O)O)C4=O)C3=O [GAMBOGIC ACID] | – | 10.02 | 99.9 | – | – | –
32 | COC(=O)/C(C)=C\CC12OC(C)(C)C3CC(C=C4C(=O)c5c(c(CCC(C)(C)Cl)c6c(c5OC)C5CC(C)(CCC5=C(C)C)O6)OC431)C2=O (stereo not drawn) [DIMETHYL GAMBOGINATE] | – | – | – | 2.30 | – | Inhibition (%) (Cryptosporidium parvum): 93.45%; % Inhibition (3.3 uM) (Cryptosporidium parvum; secondary screening at 3.3 uM): 47%; Cytotoxicity (%) (HCT-8 host cells (Hs18S); [2]): 79.7%
33 | Cl.NCCc1ccccc1 [PHENETHYLAMINE HYDROCHLORIDE] | – | – | – | 2.99 | – | Inhibition (%) (Cryptosporidium parvum): 39.04%; Cytotoxicity (%) (HCT-8 host cells (Hs18S); [2]): 87.4%
34 | CC1=C(/C=C/C(C)=C/C=C/C(C)=C/C=C/C=C(C)/C=C/C=C(C)/C=C/C2=C(C)C(=O)CCC2(C)C)C(C)(C)CCC1=O [CANTHAXANTHIN, CANTHAXANTHIN (euglenanone)] | – | – | – | – | – | Inhibition (%) (Cryptosporidium parvum): 52.72%; Cytotoxicity (%) (HCT-8 host cells (Hs18S); 10 µM): -19.8%
35 | CC(C)(O)[C@@H]1CC[C@](C)([C@H]2[C@@H](O)C[C@@]3(C)[C@@H]4C[C@H](O[C@@H]5O[C@H](CO)[C@@H](O)[C@H](O)[C@H]5O)[C@H]5C(C)(C)[C@@H](O[C@@H]6OC[C@@H](O)[C@H](O)[C@H]6O)CC[C@@]56C[C@@]46CC[C@]23C)O1 [ASTRAGALOSIDE IV] | – | – | – | -0.19 | – | Inhibition (%) (Cryptosporidium parvum): -18.98%; Cytotoxicity (%) (HCT-8 host cells (Hs18S); [2]): -14.1%
36 | OC[C@H]1O[C@H](O[C@H]2[C@H](O)[C@@H](O)[C@H](O)O[C@@H]2CO)[C@H](O)[C@@H](O)[C@@H]1O [D-(+)-MALTOSE] | – | – | – | -0.19 | – | Inhibition (%) (Cryptosporidium parvum): 55.12%
37 | C[C@@H]1CC[C@H]2[C@](C)(CO)[C@@H](O)CC[C@]2(C)[C@@]12CC[C@@](CO)(CCO)O2 [LAGOCHILIN] | – | – | – | 0.60 | – | Inhibition (%) (Cryptosporidium parvum): 9.20%; Cytotoxicity (%) (HCT-8 host cells (Hs18S); [2]): 34.1%
38 | CC(=O)Oc1cc2c(cc1OC(C)=O)[C@@H]1c3ccc(OC(C)=O)c(OC(C)=O)c3OC[C@]1(OC(C)=O)C2 [HAEMATOXYLIN PENTAACETATE] | – | – | – | 0.19 | – | Inhibition (%) (Cryptosporidium parvum): -26.73%; Cytotoxicity (%) (HCT-8 host cells (Hs18S); [2]): 12.3%
39 | C[C@@H]1O[C@@H](O[C@@H]2C=C3CC[C@@H]4[C@H](CC[C@]5(C)[C@@H](c6ccc(=O)oc6)CC[C@]45O)[C@@]3(C)CC2)[C@H](O)[C@H](O)[C@H]1O [PROSCILLARIDIN] | – | – | – | 13.28 | 100 | –
40 | C[C@H]1O[C@@H](O[C@H]2[C@@H](O)C[C@H](O[C@H]3[C@@H](O)C[C@H](O[C@H]4CC[C@@]5(C)[C@H](CC[C@@H]6[C@@H]5C[C@@H](O)[C@]5(C)[C@@H](C7=CC(=O)OC7)CC[C@]65O)C4)O[C@@H]3C)O[C@@H]2C)C[C@H](O)[C@@H]1O [DIGOXIN] | – | – | – | 14.32 | 100 | –
41 | PHYTOL | – | – | – | -0.42 | – | Inhibition (%) (Cryptosporidium parvum): -12.94%; Cytotoxicity (%) (HCT-8 host cells (Hs18S); [2]): -33.6%
42 | C[C@@H]1O[C@@H](O[C@H]2C[C@@H](O)[C@]3(CO)[C@H]4[C@H](O)C[C@]5(C)[C@@H](C6=CC(=O)OC6)CC[C@]5(O)[C@@H]4CC[C@]3(O)C2)[C@H](O)[C@H](O)[C@H]1O [OUABAIN] | – | – | – | 11.65 | – | cytotoxicity at 41 h, 10 µM (in vitro): 100%
43 | COc1cc2oc3cc(OC)c(OC)c(CC=C(C)C)c3c(=O)c2c(OC)c1CC=C(C)C [MANGOSTIN TRIMETHYL ETHER] | – | – | – | – | – | Inhibition (%) (Cryptosporidium parvum): -8.08%; Hs18S ΔCT (HCT-8 host cells (Hs18S)): 0.00; Cytotoxicity (%) (HCT-8 host cells (Hs18S); 10 µM): -0.1
